One block for each molecule: values may come before it.
Columns and labels:
[1] = tested on: hairpin 4t (DNA, hairpin, hexaethylene glycol (HEG) loop linker between 4 and 5) TCAGCTG; test: 1H NMR titration; settings: 400 mM NaCl, 80 mM MgCl2, 200 mM phosphate in D2O, pH 8.9, 20°C, 0.5 mM hairpin
[2] = tested on: template 8gtg:primer + downstream-binding oligonucleotide (DNA, duplex, 3'-amino-2',3'-dideoxynucleoside at primer 3' end) CTGGATTTCCTCAGGTGCGTGCG/CGCACGC/CCTGAGGAAATCCA; test: inhibition of enzyme-free primer extension (MALDI-ToF kinetics); settings: 400 mM NaCl, 80 mM MgCl2; 200 mM HEPES, pH 8.9, 20°C; competes with 3.6 mM dAMP-OAt; calculated from Kinh
[3] = tested on: template 8ctc:primer + downstream-binding oligonucleotide (DNA, duplex, 3'-amino-2',3'-dideoxynucleoside at primer 3' end) CTGGATTTCCTCAGCTCCGTGCG/CGCACGG/GCTGAGGAAATCCA; test: as above; settings: 400 mM NaCl, 80 mM MgCl2; 200 mM HEPES, pH 8.9, 20°C; competes with 3.6 mM dAMP-OAt; calculated from Kinh
[4] = tested on: template 8ttt:primer, no downstream-binding oligonucleotide (DNA, duplex, 3'-amino-2',3'-dideoxynucleoside at primer 3' end) CTGGATTTCCTCAGTTTCGTGCG/CGCACGA; test: as above; settings: 400 mM NaCl, 80 mM MgCl2; 200 mM HEPES, pH 8.9, 20°C; competes with 3.6 mM dAMP-OAt; calculated from Kinh
[5] = tested on: template 8ata:primer + downstream-binding oligonucleotide (DNA, duplex, 3'-amino-2',3'-dideoxynucleoside at primer 3' end) CTGGATTTCCTCAGATACGTGCG/CGCACGT/TCTGAGGAAATCCA; test: as above; settings: 400 mM NaCl, 80 mM MgCl2; 200 mM HEPES, pH 8.9, 20°C; competes with 3.6 mM dAMP-OAt; calculated from Kinh
[6] = tested on: template 8ttt:primer + downstream-binding oligonucleotide (DNA, duplex, 3'-amino-2',3'-dideoxynucleoside at primer 3' end) CTGGATTTCCTCAGTTTCGTGCG/CGCACGA/ACTGAGGAAATCCA; test: as above; settings: 400 mM NaCl, 80 mM MgCl2; 200 mM HEPES, pH 8.9, 20°C; competes with 3.6 mM dAMP-OAt; calculated from Kinh
[7] = tested on: template 8ctc:primer, no downstream-binding oligonucleotide (DNA, duplex, 3'-amino-2',3'-dideoxynucleoside at primer 3' end) CTGGATTTCCTCAGCTCCGTGCG/CGCACGG; test: as above; settings: 400 mM NaCl, 80 mM MgCl2; 200 mM HEPES, pH 8.9, 10°C; competes with 3.6 mM dAMP-OAt; calculated from Kinh
[8] = tested on: RNA hairpin 6c (RNA, hairpin, hexaethylene glycol (HEG) loop linker between 4 and 5) CCAGCUG; test: 1H NMR titration; settings: 400 mM NaCl, 80 mM MgCl2; 200 mM phosphate in D2O, pH 7, 20°C, 2 mM hairpin
[9] = tested on: template 8aga:primer + downstream-binding oligonucleotide (DNA, duplex, 3'-amino-2',3'-dideoxynucleoside at primer 3' end) CTGGATTTCCTCAGAGACGTGCG/CGCACGT/TCTGAGGAAATCCA; test: inhibition of enzyme-free primer extension (MALDI-ToF kinetics); settings: 400 mM NaCl, 80 mM MgCl2; 200 mM HEPES, pH 8.9, 20°C; competes with 3.6 mM dCMP-OAt; calculated from Kinh
[10] = tested on: template 8tgt:primer, no downstream-binding oligonucleotide (DNA, duplex, 3'-amino-2',3'-dideoxynucleoside at primer 3' end) CTGGATTTCCTCAGTGTCGTGCG/CGCACGA; test: as above; settings: 400 mM NaCl, 80 mM MgCl2; 200 mM HEPES, pH 8.9, 20°C; competes with 3.6 mM dCMP-OAt; calculated from Kinh
[11] = tested on: template 8cgc:primer, no downstream-binding oligonucleotide (DNA, duplex, 3'-amino-2',3'-dideoxynucleoside at primer 3' end) CTGGATTTCCTCAGCGCCGTGCG/CGCACGG; test: as above; settings: 400 mM NaCl, 80 mM MgCl2; 200 mM HEPES, pH 8.9, 10°C; competes with 3.6 mM dCMP-OAt; calculated from Kinh
[12] = tested on: template 8ggg:primer + downstream-binding oligonucleotide (DNA, duplex, 3'-amino-2',3'-dideoxynucleoside at primer 3' end) CTGGATTTCCTCAGGGGCGTGCG/CGCACGC/CCTGAGGAAATCCA; test: as above; settings: 400 mM NaCl, 80 mM MgCl2; 200 mM HEPES, pH 8.9, 20°C; competes with 3.6 mM dCMP-OAt; calculated from Kinh
[13] = tested on: hairpin 2g (DNA, hairpin, hexaethylene glycol (HEG) loop linker between 4 and 5) GTGCGCA; test: 1H NMR titration; settings: 400 mM NaCl, 80 mM MgCl2; 200 mM phosphate in D2O, pH 8.9, 20°C, 0.5 mM hairpin
[14] = tested on: template 8tgt:primer + downstream-binding oligonucleotide (DNA, duplex, 3'-amino-2',3'-dideoxynucleoside at primer 3' end) CTGGATTTCCTCAGTGTCGTGCG/CGCACGA/ACTGAGGAAATCCA; test: inhibition of enzyme-free primer extension (MALDI-ToF kinetics); settings: 400 mM NaCl, 80 mM MgCl2; 200 mM HEPES, pH 8.9, 20°C; competes with 3.6 mM dCMP-OAt; calculated from Kinh
[15] = tested on: template 8cgc:primer + downstream-binding oligonucleotide (DNA, duplex, 3'-amino-2',3'-dideoxynucleoside at primer 3' end) CTGGATTTCCTCAGCGCCGTGCG/CGCACGG/GCTGAGGAAATCCA; test: as above; settings: 400 mM NaCl, 80 mM MgCl2; 200 mM HEPES, pH 8.9, 20°C; competes with 3.6 mM dCMP-OAt; calculated from Kinh
[16] = tested on: template 8tat:primer + downstream-binding oligonucleotide (DNA, duplex, 3'-amino-2',3'-dideoxynucleoside at primer 3' end) CTGGATTTCCTCAGTATCGTGCG/CGCACGA/ACTGAGGAAATCCA; test: as above; settings: 400 mM NaCl, 80 mM MgCl2; 200 mM HEPES, pH 8.9, 20°C; competes with 7.2 mM TMP-OAt; calculated from Kinh
[17] = tested on: template 8gag:primer + downstream-binding oligonucleotide (DNA, duplex, 3'-amino-2',3'-dideoxynucleoside at primer 3' end) CTGGATTTCCTCAGGAGCGTGCG/CGCACGC/CCTGAGGAAATCCA; test: as above; settings: 400 mM NaCl, 80 mM MgCl2; 200 mM HEPES, pH 8.9, 20°C; competes with 7.2 mM TMP-OAt; calculated from Kinh
[18] = tested on: template 8cac:primer, no downstream-binding oligonucleotide (DNA, duplex, 3'-amino-2',3'-dideoxynucleoside at primer 3' end) CTGGATTTCCTCAGCACCGTGCG/CGCACGG; test: as above; settings: 400 mM NaCl, 80 mM MgCl2; 200 mM HEPES, pH 8.9, 10°C; competes with 7.2 mM TMP-OAt; calculated from Kinh
[19] = tested on: template 8aaa:primer + downstream-binding oligonucleotide (DNA, duplex, 3'-amino-2',3'-dideoxynucleoside at primer 3' end) CTGGATTTCCTCAGAAACGTGCG/CGCACGT/TCTGAGGAAATCCA; test: as above; settings: 400 mM NaCl, 80 mM MgCl2; 200 mM HEPES, pH 8.9, 20°C; competes with 7.2 mM TMP-OAt; calculated from Kinh
[20] = tested on: hairpin 4a (DNA, hairpin, hexaethylene glycol (HEG) loop linker between 4 and 5) ACAGCTG; test: 1H NMR titration; settings: 400 mM NaCl, 80 mM MgCl2; 200 mM phosphate in D2O, pH 8.9, 20°C, 0.5 mM hairpin
[21] = tested on: template 8cac:primer + downstream-binding oligonucleotide (DNA, duplex, 3'-amino-2',3'-dideoxynucleoside at primer 3' end) CTGGATTTCCTCAGCACCGTGCG/CGCACGG/GCTGAGGAAATCCA; test: inhibition of enzyme-free primer extension (MALDI-ToF kinetics); settings: 400 mM NaCl, 80 mM MgCl2; 200 mM HEPES, pH 8.9, 20°C; competes with 7.2 mM TMP-OAt; calculated from Kinh
[22] = tested on: template 8tat:primer, no downstream-binding oligonucleotide (DNA, duplex, 3'-amino-2',3'-dideoxynucleoside at primer 3' end) CTGGATTTCCTCAGTATCGTGCG/CGCACGA; test: as above; settings: 400 mM NaCl, 80 mM MgCl2; 200 mM HEPES, pH 8.9, 20°C; competes with 7.2 mM TMP-OAt; calculated from Kinh
[23] = tested on: hairpin 2a (DNA, hairpin, hexaethylene glycol (HEG) loop linker between 4 and 5) ATGCGCA; test: 1H NMR titration; settings: 400 mM NaCl, 80 mM MgCl2; 200 mM phosphate in D2O, pH 8.9, 20°C, 0.5 mM hairpin
[24] = tested on: hairpin 3a (DNA, hairpin, hexaethylene glycol (HEG) loop linker between 6 and 7) CTATGCGCA; test: 1H NMR titration; settings: 400 mM NaCl, 80 mM MgCl2; 200 mM phosphate in D2O, pH 8.9, 20°C, 0.5 mM hairpin
[25] = tested on: hairpin 3c (DNA, hairpin, hexaethylene glycol (HEG) loop linker between 6 and 7) CTCTGCGCA; test: 1H NMR titration; settings: 400 mM NaCl, 80 mM MgCl2; 200 mM phosphate in D2O, pH 8.9, 20°C, 0.5 mM hairpin
[26] = tested on: hairpin 2c (DNA, hairpin, hexaethylene glycol (HEG) loop linker between 4 and 5) CTGCGCA; test: 1H NMR titration; settings: 400 mM NaCl, 80 mM MgCl2; 200 mM phosphate in D2O, pH 8.9, 20°C, 0.5 mM hairpin
[27] = tested on: template 8tct:primer, no downstream-binding oligonucleotide (DNA, duplex, 3'-amino-2',3'-dideoxynucleoside at primer 3' end) CTGGATTTCCTCAGTCTCGTGCG/CGCACGA; test: inhibition of enzyme-free primer extension (MALDI-ToF kinetics); settings: 400 mM NaCl, 80 mM MgCl2; 200 mM HEPES, pH 8.9, 20°C; competes with 3.6 mM dGMP-OAt; calculated from Kinh
[28] = tested on: template 8ccc:primer + downstream-binding oligonucleotide (DNA, duplex, 3'-amino-2',3'-dideoxynucleoside at primer 3' end) CTGGATTTCCTCAGCCCCGTGCG/CGCACGG/GCTGAGGAAATCCA; test: as above; settings: 400 mM NaCl, 80 mM MgCl2; 200 mM HEPES, pH 8.9, 20°C; competes with 3.6 mM dGMP-OAt; calculated from Kinh
[29] = tested on: template 8tct:primer + downstream-binding oligonucleotide (DNA, duplex, 3'-amino-2',3'-dideoxynucleoside at primer 3' end) CTGGATTTCCTCAGTCTCGTGCG/CGCACGA/ACTGAGGAAATCCA; test: as above; settings: 400 mM NaCl, 80 mM MgCl2; 200 mM HEPES, pH 8.9, 20°C; competes with 3.6 mM dGMP-OAt; calculated from Kinh
[30] = tested on: template 8ccc:primer, no downstream-binding oligonucleotide (DNA, duplex, 3'-amino-2',3'-dideoxynucleoside at primer 3' end) CTGGATTTCCTCAGCCCCGTGCG/CGCACGG; test: as above; settings: 400 mM NaCl, 80 mM MgCl2; 200 mM HEPES, pH 8.9, 10°C; competes with 3.6 mM dGMP-OAt; calculated from Kinh
[31] = tested on: template 8aca:primer + downstream-binding oligonucleotide (DNA, duplex, 3'-amino-2',3'-dideoxynucleoside at primer 3' end) CTGGATTTCCTCAGACACGTGCG/CGCACGT/TCTGAGGAAATCCA; test: as above; settings: 400 mM NaCl, 80 mM MgCl2; 200 mM HEPES, pH 8.9, 20°C; competes with 3.6 mM dGMP-OAt; calculated from Kinh
[32] = tested on: template 8gcg:primer + downstream-binding oligonucleotide (DNA, duplex, 3'-amino-2',3'-dideoxynucleoside at primer 3' end) CTGGATTTCCTCAGGCGCGTGCG/CGCACGC/CCTGAGGAAATCCA; test: as above; settings: 400 mM NaCl, 80 mM MgCl2; 200 mM HEPES, pH 8.9, 20°C; competes with 3.6 mM dGMP-OAt; calculated from Kinh

Kd ([1]; no saturation up to 1 M dCMP): > ≥2000 mM
Kd [9]: 15 mM
Kd [10]: 19 mM
Kd [11]: 30 mM
Kd [12]: 18 mM
Kd [13]: 40 mM
Kd [14]: 5 mM
Kd [15]: 6 mM
SMILES: Nc1ccn([C@H]2C[C@H](O)[C@@H](COP(=O)(O)O)O2)c(=O)n1

Kd [16]: 59 mM
Kd [17]: 83 mM
Kd [18]: 144 mM
Kd [19]: 77 mM
Kd [20]: 241 ± 12 mM
Kd [21]: 113 mM
Kd [22]: 200 mM
Kd [23]: 261 ± 47 mM
Kd [24]: 284 ± 44 mM
SMILES: Cc1cn([C@H]2C[C@H](O)[C@@H](COP(=O)(O)O)O2)c(=O)[nH]c1=O

Kd [1]: 100 mM
Kd [25]: 16 mM
Kd [26]: 9.9 ± 0.9 mM
Kd [27]: 15 mM
Kd [28]: 7 mM
Kd [29]: 2 mM
Kd [30]: 5 mM
Kd [31]: 5 mM
Kd [32]: 10 mM
SMILES: Nc1nc2c(ncn2[C@H]2C[C@H](O)[C@@H](COP(=O)(O)O)O2)c(=O)[nH]1

Second part, the molecule before the results:

SMILES: Nc1ncnc2c1ncn2[C@H]1C[C@H](O)[C@@H](COP(=O)(O)O)O1
Kd [1]: 38 mM
Kd [2]: 5 mM
Kd [3]: 7 mM
Kd [4]: 17 mM
Kd [5]: 5 mM
Kd [6]: 5 mM
Kd [7]: 7 mM

SMILES: Nc1nc2c(ncn2[C@@H]2O[C@H](COP(=O)(O)O)[C@@H](O)[C@H]2O)c(=O)[nH]1
Kd [8]: 14 mM

— publication PMC4066754 (2014)
